# Measured values from patent EP2769722A1 (Ruprecht-Karls-Universität Heidelberg, priority 2013, dated 2014).
# Where a name gives a salt, the structure may show the parent alone.
# Molecular target: T1, CA (Human immunodeficiency virus type 1 group M subtype B, UniProt P12493)
# T1 construct: a fusion protein of CA with glutathione-S-transferase (CA-GST)
# Assay: AlphaScreen: inhibition of CAI-biotin peptide binding to CA-GST
# Parameters: species or system HIV-1
# Details: inhibition of CAI binding to CA (CA-GST fusion); compounds screened at 0.5-100 µM; read-out: α screen IC50
# Experimental: The AlphaScreen experiments are performed using Perkin Elmer Enspire plate reader in white 96-well ProxiPlates and PBS supplemented with 0.05% Tween20, 2mM DTT, 2% DMSO. First, Streptavidin-coated Donor beads are used to capture the CAI-biotin peptide. In the other solution, a fusion protein of CA with glutathione-S-transferase (CA-GST) is mixed with GSH Acceptor beads. Both mixtures were incubated and then mixed together. To test the ability of prepared organic compounds to inhibit the CAI binding to CA, they are screened at concentrations between 0.5-100 µM and IC50 values are calculated from the influenced signals.
# Upon illumination by laser at 680 nm, Donor beads containing the photosensitizer phthalocyanine convert ambient oxygen to an excited form of singlet oxygen ^1O2. Singlet oxygen can within its half-life of ∼ 4µs diffuse approximately 200 nm in solution. If an Acceptor bead is within that proximity, which is mostly upon CA:CAI interaction, energy is transferred from the singlet oxygen to thioxene derivates within the Acceptor and signal at 520 - 620 nm is emitted. […] Table 4: Synthesized and tested compounds
row,SMILES,IC50
1,"CCOC(=O)c1ccc(Nc2ccnc(-c3cccnc3)n2)cc1 [AMR-722, ethyl4-((2-(pyridin-3-yl)pyrimidin-4-yl)amino)benzoate hydrochloride]",19 µM
2,"CC(=O)c1ccc(Nc2ccnc(-c3cccnc3)n2)cc1 [AMR-725, 1.-(4-((2-(pyridin-3-yl)pyrimidin-4-yl)amino)phenyl)ethanone hydrochloride]",53 µM
3,"CC(=O)c1cccc(Nc2ccnc(-c3cccnc3)n2)c1 [AMR-726, 1-(3-((2-(pyridin-3-yi)pyrimidin-4-yl)amino)phenyl)ethanone hydrochloride]",39 µM
4,"CCOC(=O)c1ccc(Nc2cc(C(F)(F)F)nc(-c3cccnc3)n2)cc1 [AMR-742, ethyl 4-((2-(pyridin-3-yl)-6-(trifluoromethyl)pyrimidin-4-yl)amino)benzoate hydrochloride]",> 100 µM
5,"CC(=O)c1ccc(Nc2cc(C(F)(F)F)nc(-c3cccnc3)n2)cc1 [AMR-743, 1-(4-((2-(pyridin-3-yl)-6-(trifluoromethyl)pyrimidin-4-yl)amino)phenyl)ethanone hydrochloride]",> 100 µM
6,"CCOC(=O)c1ccc(Nc2ccnc(-c3ccncc3)n2)cc1 [AMR-747, ethyl 4-((2-(pyridin-4-yl)pyrimidin-4-yl)amino)benzoate hydrochloride]",28 µM
7,"CC(=O)c1ccc(Nc2ccnc(-c3ccncc3)n2)cc1 [AMR-748, 1-(4-((2-(pyridin-4-yl)pyrimidin-4-yl)amino)phenyl)ethanone hydrochloride]",> 100 µM
8,"FCCNc1ccnc(-c2ccncc2)n1 [AMR-758, N-(2-fluoroethyl)-2-(pyridin-4-yl)pyrimidin-4-amine hydrochloride]",> 100 µM
9,"CCOC(=O)c1cccc(Nc2ccnc(-c3ccncc3)n2)c1 [AMR-759, ethyl 3-((2-(pyridin-4-yl)pyrimidin-4-yl)amino)benzoate hydrochloride]",> 100 µM
10,"O=C(NCCF)c1ccc(Nc2ccnc(-c3ccncc3)n2)cc1 [AMR-763, N-(2-fluoroethyl)-4-((2-(pyridin-4-yl)pyrimidin-4-yl)amino)benzamide hydrochloride]",> 100 µM
11,"O=C(NCC(F)(F)F)c1ccc(Nc2ccnc(-c3cccnc3)n2)cc1 [AMR-771, 4-((2-(pyridin-3-yl)pyrimidin-4-yl)amino)-N-(2,2,2-trifluoroethyl)benzamide hydrochloride]",55 µM
12,"CCOC(=O)c1ccc(Nc2cc(C)nc(-c3cccnc3)n2)cc1 [AMR-778, ethyl 4-((6-methyl-2-pyridin-3-yl)pyrimidin-4-yl)amino)benzoate hydrochloride]",21 µM
13,"O=C(NCCF)c1ccc(Nc2ccnc(-c3cccnc3)n2)cc1 [AMR-792, N-(2-fluoroethyl)-4-((2-(pyridin-3-yl)pyrimidin-4-yl)amino)benzamide hydrochloride]",34 µM
14,"CC(=O)c1ccc(Nc2cc(C)nc(-c3cccnc3)n2)cc1 [AMR-794, 1-(4-((6-methyl-2-(pyridin-3-yl)pyrimidin-4-yl)amino)phenyl)ethanone hydrochloride]",12 µM
15,"Cc1cc(Nc2ccc(C(=O)NCCF)cc2)nc(-c2cccnc2)n1 [AMR-795, N-(2-fluoroethyl)-4-((6-methyl-2-(pyridin-3-yl)pyrimidin-4-yl)amino)benzamide hydrochloride]",8 µM
16,"O=C(O)c1ccc(Nc2ccnc(-c3cccnc3)n2)cc1Cl [AMR-802, 2-chloro-4-((2-(pyridin-3-yl)pyrimidin-4-yl)amino)benzoic acid hydrochloride]",25 µM
17,"O=C(NCCF)c1cc(Nc2ccnc(-c3cccnc3)n2)ccc1F [AMR-816, 2-fluoro-N-(2-fluoroethyl)-5-((2-(pyridin-3-yl)pyrimidin-4-yl)amino)benzamide dihydrochloride]",68 µM
18,"CCN(CC)CCNC(=O)c1ccc(Nc2ccnc(-c3cccnc3)n2)cc1 [AMR-822, N-(2-(diethylamino)ethyl)-4-((2-(pyridin-3-yl)pyrimidin-4-yl)amino)benzamide dihydrochloride]",> 100 µM
19,"CCOC(=O)c1ccc(Nc2ccnc(-c3cccnc3)n2)c(F)c1 [AMR-823, ethyl 3-fluoro-4-((2-(pyridin-3-yl)pyrimidin-4-yl)amino)benzoate hydrochloride]",30 µM
20,"O=C(NCCF)c1ccc(Nc2ccnc(-c3cccnc3)n2)c(F)c1 [AMR-825, 3-fluoro-N-(2-fluoroethyl)-4-((2-(pyridin-3-yl)pyrimidin-4-yl)amino)benzamide hydrochloride]",73 µM
21,"CCN(CC)CCOC(=O)c1ccc(Nc2ccnc(-c3cccnc3)n2)cc1F [AMR-827, 2-(diethylamino)ethyl 2-fluoro-4-{(2-(pyridin-3-yl)pyrimidin-4-yl)amino)benzoate hydrochloride]",> 100 µM

row,SMILES,IC50
1,"Cc1cc(Nc2ccc(C(=O)NCCF)c(F)c2)nc(-c2cccnc2)n1 [AMR-828, 2-fluoro-N-(2-fluoroethyl)-4-((6-methyl-2-(pyridin-3-yl)pyrimidin-4-yl)amino)benzamide hydrochloride]",3 µM
2,"Cc1cc(Nc2ccc(C(=O)NCCF)cc2F)nc(-c2cccnc2)n1 [AMR-829, 3-fluoro-N-(2-fluoroethyl)-4-((6-methyl-2-(pyridin-3-yl)pyrimidin-4-yl)amino)benzamide hydrochloride]",15 µM
3,"CC(=O)c1cccc(Nc2cc(C)nc(-c3cccnc3)n2)c1 [AMR-830, 1-(3-((6-methyl-2-(pyridin-3-yl)pyrimidin-4-yl)amino)phenyl)ethanone hydrochloride]",10 µM
4,"O=C(NCCF)c1ccc(Nc2ccnc(-c3cccnc3)n2)cc1F [AMR-831, 2-fluoro-N-(2-fluoroethyl)-4-((2-(pyridin-3-yl)pyrimidin-4-yl)amino)benzamide hydrochloride]",43 µM
5,"Cc1cc(Nc2cc(C(=O)NCCF)ccc2F)nc(-c2cccnc2)n1 [AMR-832, 4-fluoro-N-(2-fluoroethyl)-3-((6-methyl-2-(pyrldin-3-yl)pyrimidin-4-yl)amino)benzamide hydrochloride]",52 µM
6,"CC(=O)c1ccc(F)c(Nc2cc(C)nc(-c3cccnc3)n2)c1 [AMR-838, 1-(4-fluoro-3-((6-methyl-2-(pyridin-3-yl)pyrimidin-4-yl)amino)phenyl)ethanone hydrochloride]",> 100 µM
7,"CC(=O)c1cc(Nc2cc(C)nc(-c3cccnc3)n2)ccc1F [AMR-839, 1-(2-fluoro-5-((6-methyl-2-(pyridin-3-yl)pyrimidin-4-yl)amino)phenyl)ethanone hydrochloride]",9 µM
8,"Fc1ccc(Nc2ccnc(-c3cccnc3)n2)cc1F [KP-343, N-(3,4-difluorophenyl)-2-(pyridin-3-yl)pyrimidin-4-amine dihydrochloride]",38 µM
9,"CCOC(=O)c1ccccc1Nc1ccnc(-c2cccnc2)n1 [KP-347, Ethyl 2-{[2-(pyridm-3-yl)pyrimidm-4-yl]amino}benzoate hydrochloride]",> 100 µM
10,"Fc1cc(Nc2ccnc(-c3cccnc3)n2)cc(F)c1F [KP-351, N-(3,4,5-trifluorophenyl)-2-(pyridin-3-yl)pyrimidin-4-amine dihydrochloride]",60 µM
11,"CCOC(=O)c1ccc(Nc2ccnc(-c3cncc(Br)c3)n2)cc1 [KP-352, Ethyl 4-{[2-(5-bromopyridin-3-yl)pyrinudm-4-yl]amino}benzoate hydrochloride]",> 100 µM
12,"Fc1ccc(Nc2ccnc(-c3cncc(Br)c3)n2)cc1F [KP-355, 2-(5-Bromopyridin-3-yl)-N-(3,4-difluorophenyl)pyrimidin-4-amine hydrochloride]",> 100 µM
13,"Fc1cc(Nc2ccnc(-c3cncc(Br)c3)n2)cc(F)c1F [KP-359, 2-(5-Bromopyridin-3-yl)-N-(3,4,5-trifluorophenyl)pyrimidin-4-amine hydrochloride]",> 100 µM
14,"Fc1ccc(Nc2ccnc(-c3ccncc3)n2)cc1F [KP-360, N-(3,4-difluorophenyl)-2-(pyridin-4-yl)pyrimidin-4-amine dihydrochloride]",81 µM
15,"CCOC(=O)c1ccccc1Nc1ccnc(-c2cncc(Br)c2)n1 [KP-363, Ethyl 2-{[2-(5-bromopyridin-3-yl)pyrimidin-4-yl]amino}benzoate hydrochloride]",58 µM
16,"Cn1nnc2cc(Nc3ccnc(-c4cncc(Br)c4)n3)ccc21 [KP-364, N-[2-(5-bromopyridin-3-yl)pyrimidin-4-yl]-1-methyl-1H-benzotriazol-5-amine dihydrochloride]",14 µM
17,"CCOC(=O)c1ccc(Nc2cc(-c3cccnc3Cl)ncn2)cc1 [KP-369, Ethyl 4-{[6-(2-chloropyridin-3-yl)pyrimidin-4-yl]amino}benzoate hydrochloride]",> 100 µM
18,"Fc1cc(Nc2cc(-c3cccnc3Cl)ncn2)cc(F)c1F [KP-373, 6-(2-Chloropyridin-3-yl)-N-(3,4,5-trifluorophenyl)pyrimidin-4-amine hydrochloride]",> 100 µM
19,"Fc1ccc(Nc2cc(-c3cccnc3Cl)ncn2)cc1F [KP-374, 6-(2-Chloropyridin-3-yl)-N-(3,4-difluorophenyl)pyrimidin-4-amine hydrochloride]",> 100 µM
20,"Cn1nnc2cc(Nc3cc(-c4cccnc4Cl)ncn3)ccc21 [KP-375, N-[6-(2-Chloropyridin-3-yl)pyrimidin-4-yl]-1-methyl-1H-benzotriazol-5-amine hemihydrochloride]",> 100 µM
21,"COc1cc(Nc2cc(-c3cccnc3Cl)ncn2)cc(OC)c1OC [KP-377, 6-(2-Chloropyridin-3-yl)-N-(3,4,5-trimethoxyphenyl)pyrimidin-4-amine hydrochloride]",> 100 µM
